Where “and” joins values, the source holds several entries; their conditions need not be identical. Equal entries are not always repeated. Structures can show the parent of a compound that is named as a salt.

In one experiment the target is T1, HsHCN4 (Homo sapiens, UniProt Q9Y3Q4).
T1 construct: host or cells: Xenopus laevis oocytes injected with cRNA (pGEMHE vector)
T1 sequence (Q9Y3Q4 1-1203): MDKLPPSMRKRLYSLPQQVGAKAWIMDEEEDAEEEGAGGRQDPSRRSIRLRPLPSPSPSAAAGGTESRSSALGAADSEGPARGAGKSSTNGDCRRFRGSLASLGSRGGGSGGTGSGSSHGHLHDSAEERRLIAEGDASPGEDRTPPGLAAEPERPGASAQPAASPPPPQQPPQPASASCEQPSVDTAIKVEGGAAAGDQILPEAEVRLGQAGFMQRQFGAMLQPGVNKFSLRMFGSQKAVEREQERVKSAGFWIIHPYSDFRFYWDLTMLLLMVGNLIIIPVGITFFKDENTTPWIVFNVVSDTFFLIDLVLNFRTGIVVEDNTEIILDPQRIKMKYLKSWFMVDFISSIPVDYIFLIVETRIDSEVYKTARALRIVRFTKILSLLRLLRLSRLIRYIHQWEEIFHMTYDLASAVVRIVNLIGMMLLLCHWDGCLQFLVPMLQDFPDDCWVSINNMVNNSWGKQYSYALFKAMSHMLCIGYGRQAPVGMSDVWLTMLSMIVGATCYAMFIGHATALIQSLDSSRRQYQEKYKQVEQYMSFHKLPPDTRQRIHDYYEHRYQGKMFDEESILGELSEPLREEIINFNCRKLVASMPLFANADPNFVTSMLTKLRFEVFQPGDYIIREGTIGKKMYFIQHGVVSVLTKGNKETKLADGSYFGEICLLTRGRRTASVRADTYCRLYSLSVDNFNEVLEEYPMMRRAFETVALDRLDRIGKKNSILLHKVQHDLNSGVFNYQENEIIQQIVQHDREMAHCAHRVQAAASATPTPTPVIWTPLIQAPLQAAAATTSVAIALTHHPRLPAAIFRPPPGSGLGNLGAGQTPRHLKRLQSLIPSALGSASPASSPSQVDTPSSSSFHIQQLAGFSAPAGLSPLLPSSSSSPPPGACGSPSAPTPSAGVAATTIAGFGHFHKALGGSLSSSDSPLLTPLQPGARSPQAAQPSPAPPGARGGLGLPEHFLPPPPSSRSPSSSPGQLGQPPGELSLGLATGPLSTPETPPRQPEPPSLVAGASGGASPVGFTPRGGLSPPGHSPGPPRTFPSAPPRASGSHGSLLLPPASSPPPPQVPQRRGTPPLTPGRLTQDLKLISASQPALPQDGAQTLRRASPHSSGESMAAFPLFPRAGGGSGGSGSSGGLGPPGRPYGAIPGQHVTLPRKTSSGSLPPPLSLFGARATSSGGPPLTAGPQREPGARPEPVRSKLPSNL
The experiment in a line: Inhibition of HCN4 currents in Xenopus oocytes, two-electrode voltage clamp. The settings on record: holding −30 mV, hyperpolarized to −120 mV for 2 s, room temperature. The experiment is classed as cell-based.

Experiment [1] has as its system Isolated adult zebrafish heart. On the set-up: method as in Stoyek et al., 2022. The note with it: bath application; ref Stoyek et al., 2022; cited from earlier work.
The subject of a further experiment is patients. On the set-up: method as in Swedberg et al., 2010. The settings on record: administration to patients; ref Swedberg et al., 2010; cited from earlier work.

The term IC50 denotes the concentration that inhibits the measured activity by half. Compound `CCN(c1ccccc1)c1cc(=NC)n(C)c(C)n1.Cl` [ZD7288] registered an IC50 at HsHCN4 of 167 ± 56 µM.

As to `COc1cc2c(cc1OC)CC(=O)N(CCCN(C)C[C@H]1Cc3cc(OC)c(OC)cc31)CC2` [Ivabradine, ivabradine hydrochloride], the “Block of isolated adult zebrafish heart” value in experiment [1] is 86%. Moreover, the IC50 on HsHCN4 is 38 µM and 37.6 µM. The “Reduction of heart rate” value in the experiment on patients was “about 20%”.

On to `[Cl-].[Cs+]` [Cesium ion, Cesium chloride], for which the “Block of isolated adult zebrafish heart” value in experiment [1] is 73%. For the same compound, the IC50 worked out at 68.8 ± 14 µM against HsHCN4 and 69 ± 14 µM against HsHCN4 (listed as Cs^+).

The values above are taken from PMC9281569, “Two HCN4 Channels Play Functional Roles in the Zebrafish Heart” (Frontiers in Physiology, 2022).
